Experimental data reported in patent publication US10273208B2, “Screening methods for the binding affinity of chemical entities to biological molecules and NEDD4-1 inhibitors identified by the screening methods” (Northwestern University, priority 2014, dated 2019).

Biological target: T1, human rhinovirus 3C protease (GST-HRV3C, PreScission protease) (Human rhinovirus 14, UniProt P03303)
T1 construct: made in house; host or cells: E. coli Rosetta (DE3)pLysS
Assay: Irreversible tethering counter-screen (ESI-MS) against HRV3C protease
Format: binding
Conditions: mixtures of ten fragments 100 μM each, 1 h
Experimental: FIG. 28A, FIG. 28B, FIG. 28C and FIG. 28D. Counterscreen of compound 6 against the deubiquitinase USPO8 and Human Rhinovirus (HRV) 3C protease, both of which have catalytic cysteines. Compound 6 at 100 μM in 1% DMSO was incubated with the catalytic domain of the indicated cysteine protease (10 μM) for 1 h, followed by gel filtration and whole protein ESI-MS.
To further test the specificity of the developed irreversible tethering system, we conducted a counter-screen of the same set of 100 compounds (10 mixtures of 10 compounds each) against three other enzymes: human rhinovirus 3C protease, the deubiquitinase USP08, and the E2 ubiquitin-conjugating enzyme UbcH7. […] The molecular weight of GST-HRV3C protease is 47566.72 Da and its amino acid sequence is provided as (SEQ ID NO:2).
10 μM of papain (Sigma P4762), UbcH7 (recombinantly expressed) or USPO8 (recombinantly expressed) in 50 mM HEPES 150 mM NaCl 0.1 mM EDTA pH 7.5 was treated with a mixture of ten fragments (Table S2) (10 mM DMSO stock solutions, final concentrations: 100 μM of each fragment, and 1% DMSO). The reaction mixture was incubated for 1 h or 4 h at 23° C. before being passed through Zeba gel filtration columns (Thermo, 7K MWCO) to remove unreacted fragments. The protein solution was then immediately analyzed by whole protein LC/ESI-MS.
Accurate-mass data were obtained on an Agilent 6210A LC-TOF mass spectrometer in positive ion mode using electrospray ionization. Samples were chromatographed on the LC-TOF instrument using a Poroshell 120 EC-C18 HPLC column (2.1*50 mm, 2.7 micron), an Agilent Series 1200 HPLC binary pump, and an Agilent Series 1200 autoinjector. The HPLC column was held at 45° C. and the autosampler was held at 8° C. Mobile Phase A was a solution of 0.1% formic acid in water:acetonitrile (19:1). Mobile Phase B was a solution of 0.1% formic acid in acetonitrile. The flow rate was set to 250 μL/min. The gradient used was 0% B for 2 minutes, ramping linearly to 90% B from 2 minutes to 5 minutes, holding at 90% B from 5 minutes to 7 minutes, and then returning to 0% B at 7.1 minutes. […]

T1 sequence (P03303 1538-1719, added parts left off): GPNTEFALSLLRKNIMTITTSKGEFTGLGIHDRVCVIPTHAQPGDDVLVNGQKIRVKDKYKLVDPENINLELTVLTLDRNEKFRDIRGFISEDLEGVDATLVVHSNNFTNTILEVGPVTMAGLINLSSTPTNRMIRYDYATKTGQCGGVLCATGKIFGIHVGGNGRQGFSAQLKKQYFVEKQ

In the case of `COC(=O)/C=C/CNC(=O)c1cc2cc(Cl)cc(OC)c2o1` [Compound 98], the “labeling of HRV3C protease” value is reported as about 20%.

Test system: not listed separately
Assay: NMR rate studies: pseudo-first order reaction with N-acetylcysteine methyl ester
Format: physicochemical
Conditions: electrophile 10 mM, N-acetyl cysteine methyl ester 78 mM, 2:1 deuterated PBS:DMSO-d6, pD 8, NMR
From the text: We further validated the utility of electrophile 3 as a thiol-reactive tether by making a library of one hundred structurally diverse drug-like fragments 6-105 containing this electrophile. The library was constructed with an HBTU amide coupling with commercially available carboxylic acid fragments (FIG. 2A). The acids were selected with “rule of three” criteria^15 and a subsequent diversity analysis. We measured the reaction rates for the first fifty fragments to confirm that this library would have balanced cysteine reactivity and could be used for irreversible tethering (FIG. 2B).
N-Acetyl cysteine methyl ester was dissolved in 2:1 deuterated PBS:DMSO-d6 (78 mM) with 10 mM CH2Cl2 as an internal standard. The electrophile (10 mM) was then added immediately prior to acquiring spectra. H1 spectra were taken every 30 s for 30 min (or every 4 s for 5 min for highly reactive compounds 1c and 2a-c). The integrals of the vinyl peaks were used to determine the concentration of the electrophile over time. The natural logarithm of the concentration of the electrophile versus time was then plotted using GraphPad Prism software. The linear slope of this plot was used to determine the pseudofirst order rate constant. Deuterated PBS recipe: 20 mM Na3PO4, 50 mM NaCl in D2O was adjusted to pD 8 with DC1 solution.

`COC(=O)/C=C/CNC(=O)c1cc(Br)ccc1N` [Compound 35] and `COC(=O)/C=C/CNC(=O)c1cc(Br)ccc1OC` [Compound 38] are within 1.5-fold of each other in k pseudo-first order: 0.0005755 s⁻¹ for the first, 0.0007728 s⁻¹ for the second.

Compared with `COC(=O)/C=C/CNC(=O)c1c(C)nc2cc(C)ccn12` [Compound 45], `COC(=O)/C=C/CNC(=O)c1cc(C)nc2ccc(C)cc12` [Compound 27] is 1.7-fold higher in k pseudo-first order: 0.0003961 s⁻¹ for the first, 0.0006665 s⁻¹ for the second.

`COC(=O)/C=C/CNC(=O)c1ccc(CN2CCc3ccccc3C2)cc1` [Compound 30] and `COC(=O)/C=C/CNC(=O)c1cnn(Cc2ccccc2)c1` [Compound 49] are within 1.5-fold of each other in k pseudo-first order: 0.0006579 s⁻¹ for the first, 0.0004975 s⁻¹ for the second.

Going from `C=CCN1CC(C(=O)NC/C=C/C(=O)OC)CC1=O` (stereo not shown) [Compound 40] to `COC(=O)/C=C/CNC(=O)C1CC(=O)N(C)c2ccccc21` (stereo not shown) [Compound 15], the k pseudo-first order rises from 0.0004793 s⁻¹ to 0.0007733 s⁻¹ (1.6-fold).

`COC(=O)/C=C/CNC(=O)C1Cc2ccccc2CN1C` (stereo not shown) [Compound 16] and `CCC(C(=O)NC/C=C/C(=O)OC)N1Cc2ccccc2C1=O` (stereo not shown) [Compound 18] are within 1.5-fold of each other in k pseudo-first order: 0.0006414 s⁻¹ for the first, 0.0006093 s⁻¹ for the second.

`COC(=O)/C=C/CNC(=O)CN(C)C1CCCC1` [Compound 20] and `COC(=O)/C=C/CNC(=O)[C@@H]1CCCN1C(=O)C1CC1` [Compound 31] are within 1.5-fold of each other in k pseudo-first order: 0.0005603 s⁻¹ for the first, 0.0005193 s⁻¹ for the second.

Going from `COC(=O)/C=C/CNC(=O)c1c[nH]nc1-c1cccc(F)c1` [Compound 47] to `COC(=O)/C=C/CNC(=O)c1c[nH]c2ccc(OC)cc12` [Compound 13, Methyl(E)-4-(5-methoxy-1H-indole-3-carboxamido)but-2-enoate], the k pseudo-first order falls from 0.0006539 s⁻¹ to 0.0003582 s⁻¹ (1.8-fold).

`COC(=O)/C=C/CNC(=O)c1n[nH]cc1Br` [Compound 50] and `COC(=O)/C=C/CNC(=O)c1ccccc1Br` [Compound 34] are within 1.5-fold of each other in k pseudo-first order: 0.0006514 s⁻¹ for the first, 0.0007717 s⁻¹ for the second.

`CCC(C(=O)NC/C=C/C(=O)OC)n1cccn1` (stereo not shown) [Compound 39] and `COC(=O)/C=C/CNC(=O)C(C)n1cnc2ccccc21` (stereo not shown) [Compound 48] are within 1.5-fold of each other in k pseudo-first order: 0.000651 s⁻¹ for the first, 0.000468 s⁻¹ for the second.

`COC(=O)/C=C/CNC(=O)Cn1ncc2ccccc21` [Compound 21] and `COC(=O)/C=C/CNC(=O)Cn1c(=O)cc(C)c2ccccc21` [Compound 55] are within 1.5-fold of each other in k pseudo-first order: 0.0003327 s⁻¹ for the first, 0.000452 s⁻¹ for the second.

`COC(=O)/C=C/CNC(=O)c1ccc(Cl)cn1` [Compound 53] and `COC(=O)/C=C/CNC(=O)c1cccc(Cl)n1` [Compound 33] are within 1.5-fold of each other in k pseudo-first order: 0.0005521 s⁻¹ for the first, 0.0006348 s⁻¹ for the second.

`COC(=O)/C=C/CNC(=O)c1c(C)[nH]c2ccc(OC)cc12` [Compound 12, Methyl(E)-4-(5-methoxy-2-methyl-1H-indole-3-carboxamido)but-2-enoate] and `COC(=O)/C=C/CNC(=O)c1c(C)n(C)c2ccc(OC)cc12` [Compound 43] are within 1.5-fold of each other in k pseudo-first order: 0.000654 s⁻¹ for the first, 0.0007616 s⁻¹ for the second.

`COC(=O)/C=C/CNC(=O)c1ccc(-c2ccc(C)o2)cc1` [Compound 23] and `COC(=O)/C=C/CNC(=O)c1ccc(OC)cc1` [Compound 28] are within 1.5-fold of each other in k pseudo-first order: 0.0004979 s⁻¹ for the first, 0.00042 s⁻¹ for the second.

`COC(=O)/C=C/CNC(=O)c1ccnc(C)c1` [Compound 29] and `COC(=O)/C=C/CNC(=O)Cc1ccncc1` [Compound 25] are within 1.5-fold of each other in k pseudo-first order: 0.0004038 s⁻¹ for the first, 0.0005202 s⁻¹ for the second.

`COC(=O)/C=C/CNC(=O)c1c(C)[nH]c2c1C(=O)CCC2` [Compound 41] and `COC(=O)/C=C/CNC(=O)c1cc2c([nH]c1=O)CCCC2` [Compound 44] are within 1.5-fold of each other in k pseudo-first order: 0.0005635 s⁻¹ for the first, 0.0006746 s⁻¹ for the second.

Compared with `CCn1c(C)c(C(=O)NC/C=C/C(=O)OC)c2cc(OC)ccc21` [Compound 14, Methyl(E)-4-(1-ethyl-5-methoxy-2-methyl-1H-indole-3-carboxamido)but-2-enoate], `CCn1nc(C(C)C)cc1C(=O)NC/C=C/C(=O)OC` [Compound 46] is 1.6-fold higher in k pseudo-first order: 0.0005016 s⁻¹ for the first, 0.0007806 s⁻¹ for the second.

`COC(=O)/C=C/CNC(=O)C1COc2c(cccc2OC)C1` (stereo not shown) [Compound 26] and `COC(=O)/C=C/CNC(=O)c1cnn(-c2ccccc2OC)c1` [Compound 24] are within 1.5-fold of each other in k pseudo-first order: 0.0006107 s⁻¹ for the first, 0.0005202 s⁻¹ for the second.

`COC(=O)/C=C/CNC(=O)CNC(=O)c1ccccc1Br` [Compound 54] and `COC(=O)/C=C/CNC(=O)c1ccccc1N(C)C(=O)c1ccco1` [Compound 51] are the same in k pseudo-first order: 0.0005048 s⁻¹ for the first, 0.0005048 s⁻¹ for the second.

`COC(=O)/C=C/CNC(=O)Cc1c(C)nn(-c2ccccc2)c1C` [Compound 42] and `COC(=O)/C=C/CNC(=O)Cn1nc(C)cc1C` [Compound 37] are within 1.5-fold of each other in k pseudo-first order: 0.0005281 s⁻¹ for the first, 0.0004493 s⁻¹ for the second.

Going from `COC(=O)/C=C/CNC(=O)C(CO)c1ccccc1` (stereo not shown) [Compound 36] to `COC(=O)/C=C/CNC(=O)c1cc(C2CC2)nc2ccccc12` [Compound 52], the k pseudo-first order rises from 0.00034 s⁻¹ to 0.0005984 s⁻¹ (1.8-fold).

Compound `COC(=O)/C=C/CNC(=O)c1sc(C(C)C)nc1C` [Compound 17] has a k pseudo-first order of 0.0006156 s⁻¹.

Biological target: T2, NEDD4-1 HECT domain (Homo sapiens, UniProt P46934)
T2 construct: to elute NEDD4-1 HECT domain (50 mM HEPES, 150 mM NaCl, 0.1 mM EDTA 1 mM DTT); GST (N, cleaved yes); made in house; host or cells: E. coli BL21
T2 sequence (P46934 with tags, fused parts or gaps): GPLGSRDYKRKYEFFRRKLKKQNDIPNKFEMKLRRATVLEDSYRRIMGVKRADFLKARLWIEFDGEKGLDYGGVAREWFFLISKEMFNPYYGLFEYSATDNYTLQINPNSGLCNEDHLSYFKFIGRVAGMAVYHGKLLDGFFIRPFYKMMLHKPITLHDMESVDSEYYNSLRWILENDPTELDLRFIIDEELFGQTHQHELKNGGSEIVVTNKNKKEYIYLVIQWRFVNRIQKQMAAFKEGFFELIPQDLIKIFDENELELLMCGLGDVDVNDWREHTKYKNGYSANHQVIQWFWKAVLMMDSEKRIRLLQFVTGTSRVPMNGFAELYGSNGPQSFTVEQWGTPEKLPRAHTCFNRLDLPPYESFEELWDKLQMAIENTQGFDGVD
Assay: Covalent labeling of NEDD4-1 HECT domain (gel filtration, whole protein ESI-MS)
Format: binding
Conditions: compound 100 μM, NEDD4-1 HECT 10 μM, 4 h
Experimental: 10 μM of NEDD4-1 HECT domain in 50 mM HEPES 150 mM NaCl 0.1 mM EDTA 1 mM DTT pH 7.5 was treated with a mixture of ten fragments (from 10 mM each DMSO stock solution mixtures; final concentrations: 100 μM of each fragment, and 1% DMSO). Fragment structures and mixture compositions were the same as reported previously. The reaction mixture was incubated for 4 h at 23° C. before being passed through Zeba gel filtration columns (Thermo, 7K MWCO) to remove unreacted fragments. The protein solution was then immediately analyzed by whole protein LC/ESI-MS.
Accurate-mass data were obtained on an Agilent 6210A LC-TOF mass spectrometer in positive ion mode using electrospray ionization. Samples were chromatographed on the LC-TOF instrument using a Poroshell 120 EC-C18 HPLC column (2.1*50 mm, 2.7 micron), an Agilent Series 1200 HPLC binary pump, and an Agilent Series 1200 autoinjector. The HPLC column was held at 45° C. and the autosampler was held at 8° C. Mobile Phase A was a solution of 0.1% formic acid in water:acetonitrile (19:1). Mobile Phase B was a solution of 0.1% formic acid in acetonitrile. The flow rate was set to 250 μL/min. The gradient used was 0% B for 2 minutes, ramping linearly to 90% B from 2 minutes to 5 minutes, holding at 90% B from 5 minutes to 7 minutes, and then returning to 0% B at 7.1 minutes. The column was allowed to equilibrate for 2.7 minutes before the next injection was initiated. The eluent from the column was diverted to waste for the first 2 minutes. The spectra were acquired from 301 to 3200 daltons using a gas temperature of 340° C., a gas flow of 7 liters/min, and the nebulizer gas at 35 psi. The following voltages were used: capillary 4200 V, fragmentor 230V, skimmer 64V, and octapole RF peak 250V. Spectra were acquired at a rate of 1 spectra/sec. The data was processed using MassHunter software version B.02.00. Maximum entropy deconvolutions were performed with a Mass Step of 1, S/N Threshold of 30, Average Mass at 90% of Peak Height, and 5 Charge States Minimum.
10 μM of NEDD4-1 HECT domain in 50 mM HEPES 150 mM NaCl 0.1 mM EDTA 1 mM DTT pH 7.5 was treated with 1 mM of inhibitor 1 or 2 (from 100 mM DMSO stock solution; final concentrations: 1 mM of inhibitor, 1% DMSO, and 0.2% CHAPS to solubilize the inhibitors at 1 mM). The reaction mixture was incubated for 4 h at 23° C. before being passed through Zeba gel filtration columns (Thermo, 7K MWCO) to remove unreacted inhibitor. The protein solution was then immediately used for crystallization or enzymatic assay.

In the case of `CCOc1ccc2c(c1)c(C(=O)NC/C=C/C(=O)OC)c(C)n2C` [Compound 10, Methyl(E)-4-(5-ethoxy-1,2-dimethyl-1H-indole-3-carboxamido)but-2-enoate], the “labeling of NEDD4-1 HECT domain (qualitative)” value is reported as “did not label NEDD4-1”.
